This note sets out measurements from PMC6089501 (Journal of Medicinal Chemistry, 2018).

In one data set the target is CYP2C19 (Homo sapiens, UniProt P33261). The data set can be described thus: in vitro.
Another data set deals with T1, CYP 1A2 (Homo sapiens, UniProt P05177).
T1 sequence (P05177 1-516): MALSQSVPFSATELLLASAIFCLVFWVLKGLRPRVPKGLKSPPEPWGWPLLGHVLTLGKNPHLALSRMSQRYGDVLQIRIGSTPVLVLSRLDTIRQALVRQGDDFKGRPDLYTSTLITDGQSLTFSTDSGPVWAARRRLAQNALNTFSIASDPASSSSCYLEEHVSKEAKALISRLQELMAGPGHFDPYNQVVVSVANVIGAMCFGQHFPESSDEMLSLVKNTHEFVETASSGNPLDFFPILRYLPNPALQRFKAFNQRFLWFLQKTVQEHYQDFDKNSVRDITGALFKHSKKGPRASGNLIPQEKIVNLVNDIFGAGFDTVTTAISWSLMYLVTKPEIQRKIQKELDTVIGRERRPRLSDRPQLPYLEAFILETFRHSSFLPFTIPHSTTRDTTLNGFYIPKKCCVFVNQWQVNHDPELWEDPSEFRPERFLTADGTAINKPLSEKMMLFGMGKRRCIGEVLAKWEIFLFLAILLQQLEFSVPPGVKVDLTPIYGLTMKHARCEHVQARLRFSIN
The data set can be described thus: CYP inhibition 1A2.

The conditions of data set [1]: microsomes.
The next data set deals with CYP 2D6 (Homo sapiens, UniProt P10635). Description: biochemical.
The conditions of data set [2]: for Cli mouse / scaled Clpre: female, CD1, mouse, pH 7.4.
For data set [3], the system named is M. tuberculosis H37Rv. Description: microbe, parasite or virus in culture. The format is cell-based, Mycobacterium tuberculosis. As to conditions: for MIC / MIC90 / IC90: Mycobacterium tuberculosis, H37RV; for MIC90: read-out: MIC (MIC90); for IC90: read-out: TB-IC90_OD GEOM_MEAN.
The nature of data set [4]: in vitro. To be noted: African green monkey, Vero cytotoxicity.
Protocol: (§1) Compounds were solubilized in DMSO and assayed as a 10-point 3-fold serial dilution. Compounds were incubated with cells for 2 days at 37 °C, 5% CO2. CellTiter-Glo Reagent (Promega) was added and relative luminescent units (RLU) measured.
A short description of data set [5]: in vitro. As to conditions: dog, MDCK-MDR1.
The target in the next data set is CYP2C9 (Homo sapiens, UniProt P11712). Description: in vitro.
Data set [6] deals with Madin Darby Canine Kidney (MDCK). To be noted: for P-glycoprotein (P-gp) efflux (in words) / permeability (in words): MDCK-MDR1; for P-gp Efflux B→ A/A → B: dog, MDCK.
For data set [7] the following is noted: female, C57 Black, mouse, in vivo, iv, 3 mg/kg.
Protocol: (§2) Test compound was dosed as a bolus solution intravenously at 3 mg of free base/kilogram (dose volume 5 mL/kg; dose vehicle Saline or 10% DMSO; 40% PEG400; 50% saline) to female C57 Black (n = 3) or dosed orally by gavage as a solution at 10 mg of free base/kilogram (dose volume 10 mL/kg; dose vehicle 10% DMSO; 40% PEG400; 50% distilled water) to female C57 Black (n = 3/dose level). Blood samples were taken from each mouse tail vein at predetermined time points postdose, mixed with two volumes of distilled water, and stored frozen until UPLC/MS/MS analysis. Pharmacokinetic parameters were derived from the blood concentration time curve using PK Solutions software v 2.0 (Summit Research Services, USA).
The subject of data set [8] is Vero cells. Description: cells. To be noted: Chlorocebus sabaeus, read-out: VERO IC50.
Protocol: as §1
A short description of data set [9]: in vivo. As to conditions: female, C57 Black, mouse; for AUC: iv, 3 mg/kg; for bioavailability: po, 10 mg/kg.
Protocol: as §2
A short description of data set [10]: physchem.
Protocol: (§3) Samples are stirred for 20 h and filtered through a 0.7 μm GF filter. The filtrate was analyzed by HPLC assay for concentration against DMSO standard curve.[40]
A short description of data set [11]: physchem. This is another data set of the same source.
Data set [12] can be described thus: physchem. The source holds these as a separate data set.
In data set [13] the test system is M. tuberculosis H37Rv. Also noted: species or system Mycobacterium tuberculosis. To be noted: in vivo.
The conditions of data set [14]: C57 Black, mouse, in vivo, po.
Protocol: Analysis of 37 in Mouse Blood samples (10mg/kg PO and 3mg/kg IV)
Data set [15] can be described thus: in vivo. To be noted: Sprague-Dawley, rat; for AUC(0-t) at 24 h: AUC 0–24.
Protocol: (§4) Test compound was dosed orally by gavage at 5 mg of free base/kilogram (dose volume 5 mL/kg; dose vehicle 1.0% carboxy methyl cellulose, CMC) to male Sprague–Dawley Rats (n = 1 per time point). At predetermined time points, blood samples (100 μL) were taken from the hepatic portal vein into a tube containing EDTA. Immediately afterward, the remaining blood was taken by cardiac puncture into a separate tube containing EDTA to determine the concentration of compound reaching the systemic circulation. The blood was mixed with two volumes of distilled water and stored frozen until UPLC/MS/MS analysis. Pharmacokinetic parameters were derived from the blood concentration time curve using PK Solutions software v 2.0 (Summit Research Services, USA).
For data set [16] the following is noted: pH 2/6/7.4.
Protocol: as §3
In data set [17] the test system is Vero cells. To be noted: read-out: VERO IC50.
Protocol: as §1
The conditions of data set [18]: Sprague-Dawley, rat, in vivo.
Protocol: as §4
For data set [19], the system named is M. tuberculosis H37Rv. The format is cell-based, Mycobacterium tuberculosis.

≈ marks a conversion by molar mass, not a printed value. Where “and” joins values, the source holds several entries; their conditions need not be identical. Equal entries are not always repeated. Where two headings read alike, the source gives them in different places. Where only a bound is given, the exact number is not on record here.

Sequence of CYP 2D6 (P10635 whole entry): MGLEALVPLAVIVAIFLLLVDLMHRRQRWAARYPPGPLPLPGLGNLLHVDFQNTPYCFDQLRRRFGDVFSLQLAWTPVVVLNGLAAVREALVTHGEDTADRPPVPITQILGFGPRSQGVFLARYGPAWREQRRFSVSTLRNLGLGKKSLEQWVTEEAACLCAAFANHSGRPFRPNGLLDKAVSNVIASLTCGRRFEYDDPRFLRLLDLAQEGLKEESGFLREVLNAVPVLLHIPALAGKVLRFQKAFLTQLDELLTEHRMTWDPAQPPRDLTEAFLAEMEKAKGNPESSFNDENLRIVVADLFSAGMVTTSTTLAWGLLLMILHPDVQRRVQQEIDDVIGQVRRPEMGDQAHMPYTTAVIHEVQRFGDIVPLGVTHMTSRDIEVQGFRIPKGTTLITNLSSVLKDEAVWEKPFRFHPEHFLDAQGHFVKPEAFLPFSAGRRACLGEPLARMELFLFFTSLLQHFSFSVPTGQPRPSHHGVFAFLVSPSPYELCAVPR
Sequence of CYP2C9 (P11712 whole entry): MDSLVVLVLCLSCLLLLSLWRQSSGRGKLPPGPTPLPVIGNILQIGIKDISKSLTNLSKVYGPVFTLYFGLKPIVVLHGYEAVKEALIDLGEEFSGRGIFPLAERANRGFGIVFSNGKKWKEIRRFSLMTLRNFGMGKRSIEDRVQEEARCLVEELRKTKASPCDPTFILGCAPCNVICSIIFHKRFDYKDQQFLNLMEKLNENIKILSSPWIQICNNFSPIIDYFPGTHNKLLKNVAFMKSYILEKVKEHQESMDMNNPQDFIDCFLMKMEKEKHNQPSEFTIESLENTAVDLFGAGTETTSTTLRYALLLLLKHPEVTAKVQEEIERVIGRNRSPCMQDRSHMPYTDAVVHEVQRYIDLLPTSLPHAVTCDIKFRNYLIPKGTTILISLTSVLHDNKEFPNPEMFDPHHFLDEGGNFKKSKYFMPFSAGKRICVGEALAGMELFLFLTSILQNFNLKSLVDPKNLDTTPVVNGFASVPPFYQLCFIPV
Sequence of CYP2C19 (P33261 whole entry): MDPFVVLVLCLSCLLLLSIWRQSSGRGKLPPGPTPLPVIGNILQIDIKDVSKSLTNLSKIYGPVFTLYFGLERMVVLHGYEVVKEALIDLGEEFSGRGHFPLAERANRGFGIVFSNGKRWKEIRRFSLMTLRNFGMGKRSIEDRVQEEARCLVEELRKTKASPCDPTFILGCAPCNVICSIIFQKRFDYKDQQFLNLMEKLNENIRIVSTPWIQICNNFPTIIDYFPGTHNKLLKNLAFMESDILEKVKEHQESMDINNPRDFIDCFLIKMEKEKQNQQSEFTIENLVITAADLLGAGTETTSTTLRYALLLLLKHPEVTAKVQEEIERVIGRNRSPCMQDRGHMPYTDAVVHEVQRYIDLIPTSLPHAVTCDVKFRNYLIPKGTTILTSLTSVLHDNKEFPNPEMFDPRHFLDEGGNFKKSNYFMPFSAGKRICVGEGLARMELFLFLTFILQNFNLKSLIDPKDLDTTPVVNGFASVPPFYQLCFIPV

As for `NC(=O)c1sc(N2CCOCC2)cc1OCCc1ccccc1` [Compound 1, 5-Morpholino-3-phenethoxythiophene-2-carboxamide], at CYP2C19, the IC50 (commonly the concentration that gives 50% inhibition) is 1.26 µM. Besides, on CYP 1A2, the IC50 was more than 10 µM. In addition, in data set [1], the “Microsomal clearance, Human” value is reported as “Human = 3.5 mL·min^−1·g^−1”. On CYP 2D6, this compound gave an IC50 of 10 µM. In data set [2], the Cli mouse is listed as 19 mL.min^–1.g^–1 and the “scaled Clpre” value came to 81 mL/min/kg. Further, in data set [2] (mouse, microsomes), the “CL mouse MEAN” value was found to be 18.63 mL/min/g; the “Microsomal clearance, Mouse” value is listed as “Mouse = 19 mL·min^−1·g^−1”; the “in vitro mouse Clint” value amounted to 19 mL/min/g. Further, the MIC in the data set on M. tuberculosis H37Rv [3] (read-out: H37Rv MIC) was determined as 0.13 µg/mL. In the data set with M. tuberculosis H37Rv [3], the MIC90 stood at 0.72 µM (≈ 0.239 µg/mL) and the IC90 amounted to 0.608 µM. Besides, in the data set with M. tuberculosis H37Rv [3] (read-out: MIC WT), the MIC stood at 1.3 µM. Besides, the “MIC (H37RvLP)” value in the data set on M. tuberculosis H37Rv [3] (n = 14) is recorded as 0.72 ± 0.30 (n = 14). Further, the IC50 in the data set “in vitro [4]” was more than 100 µM. In the data set “in vitro [5]”, the Papp A→B (commonly how fast a substance crosses the layer from the apical side) was determined as 45 ×10⁻⁶ cm/s and the Papp B→A – broadly, how fast a substance crosses the layer from the basolateral side – is 37 ×10⁻⁶ cm/s. For the same compound, the concentration for half-maximal inhibition (IC50) on CYP2C9 was 7.94 µM. Also, in data set [6], the “P-glycoprotein (P-gp) efflux (in words)” value is reported as “no likely P-glycoprotein (P-gp) efflux issues”, the “permeability (in words)” value is listed as “good permeability” and the “P-gp Efflux B→ A/A → B” value is recorded as 0.8. In data set [7], this compound registered a CLB of 10 mL/min/kg and a T1/2 of 0.7 h. Also, in the data set on Vero cells [8], the IC50 was more than 100 µM. Also, in “in vivo [9]”, the AUC (in general, the area under the concentration-time curve, a measure of exposure) is 4830 ng·h/mL and the bioavailability (as a rule, dose-corrected exposure relative to a reference, in per cent) worked out at 0.5%.
Consider `NC(=O)c1sc(CN2CCOCC2)cc1OCCc1ccccc1` [Compound 18, 5-(Morpholinomethyl)-3-(2-phenylethoxy)thiophene-2-carboxamide], for which the concentration in solution in “physchem [10]” (pH 2) (solubility) came to 700 µg/mL (≈ 2020 µM). Further, in “physchem [10]” (pH 7.4), the concentration in solution (solubility) was 300 µg/mL (≈ 866 µM). Moreover, the chromatographic logD (commonly a lipophilicity value derived from retention on a column) in the data set “physchem [11]” was 1.71. The same compound displayed a Cli mouse in data set [2] of 3 mL.min^–1.g^–1. Besides, the “CL mouse MEAN” value in data set [2] (mouse, microsomes) was determined as 3.219 mL/min/g. For the same compound, in the data set with M. tuberculosis H37Rv [3], the “antitubercular whole cell activity (in words)” value is reported as “not active”, the MIC90 is more than 20 µM and the IC90 was more than 20 µM. In addition, the concentration in solution in the data set “physchem [12]” (pH 2.4) (solubility) was 1700 µg/mL (≈ 4910 µM). In the data set “in vitro [5]”, the Papp A→B was determined as 62 ×10⁻⁶ cm/s and the Papp B→A stood at 53 ×10⁻⁶ cm/s. Moreover, in [6], the “P-glycoprotein (P-gp) efflux (in words)” value is “no likely P-glycoprotein (P-gp) efflux issues”, the “permeability (in words)” value is on record as “good permeability” and the “P-gp Efflux B→ A/A → B” value came out at 0.8. In the data set with Vero cells [8], the IC50 is more than 100 µM.
`NC(=O)c1sc(N2CCOCC2)cc1OCCc1ccc(OC(F)(F)F)cc1` [Compound 37, 5-Morpholino-3-[2-[4-(trifluoromethoxy)phenyl]ethoxy]thiophene-2-carboxamide]: in the data set on M. tuberculosis H37Rv [13], the “growth of the bacteria in the lungs compared to untreated mice (in words)” value is “able to inhibit the growth of the bacteria in the lungs”; the “log CFUs per mouse (lungs), individual mice” value is 6.1 log CFU and 5.8 log CFU; the “log CFUs per mouse (lungs), mean” value is reported as 6.0 log CFU. Besides, the “log reduction of colony forming unit (CFU) counts in the lungs” value with M. tuberculosis H37Rv [13] (po, 100 mg/kg) amounted to 0.8 log. Also, in the data set “physchem [10]” (pH 2), the concentration in solution (solubility) came to 2 µg/mL (≈ 4.8 µM). The amount in solution in the data set “physchem [10]” (pH 6) (solubility) came to 1 µg/mL (≈ 2.4 µM). Besides, in “physchem [10]” (pH 7.4), the solubility (in general, the concentration that dissolves in the medium under given conditions) was 1 µg/mL (≈ 2.4 µM). Further, in “physchem [11]”, the chromatographic logD came out at 2.68. Besides, in data set [2], the Cli mouse worked out at 8 mL.min^–1.g^–1 and the “scaled Clpre” value is 76 mL/min/kg. In data set [2] (mouse, microsomes), the “CL mouse MEAN” value worked out at 8.159 mL/min/g and the “in vitro mouse Clint” value came to 8 mL/min/g. Further, in data set [14], the “% Peak Area, metabolite A N or S-oxide” value is listed as 3%; the “% Peak Area, metabolite B De-ethylation + oxidation” value worked out at 3%; the “% Peak Area, metabolite C De-ethylation” value is given as 2%; the “% Peak Area, metabolite D Oxidation (x3)” value turned out to be 6%. The “% Peak Area, metabolite E Hydroxylation” value in [14] amounted to 27%. Further, in the data set on M. tuberculosis H37Rv [3] (read-out: H37Rv MIC), the MIC was 0.083 µg/mL. Also, in the data set with M. tuberculosis H37Rv [3], the MIC90 came to 0.24 µM (≈ 0.0999 µg/mL) and the IC90 is 0.217 µM. The MIC in the data set with M. tuberculosis H37Rv [3] (read-out: MIC WT) amounted to 0.24 µM. Moreover, in “in vivo [15]” (iv, 1 mg/kg), the AUC(0-t) (commonly exposure summed from dosing to a finite time, without extrapolation to infinity) at 24 h was 550 ng·h/mL. In addition, in “in vivo [15]” (male, po, 5 mg/kg), the Tmax – broadly, the time from dosing to the highest level – was 1 h and the AUC(0-t) at 24 h is 583 ng·h/mL. In addition, the Cmax – broadly, the peak of the concentration-time curve – in the data set “in vivo [15]” (male, po, 5 mg/kg, Cmax) is 200 ng/mL. In addition, in “in vitro [5]”, the Papp A→B stood at 25 ×10⁻⁶ cm/s and the Papp B→A is 20 ×10⁻⁶ cm/s. Further, in data set [16], the “solubility in HTSA (in words)” value is on record as “poor solubility”. Moreover, the IC50 in the data set on Vero cells [17] turned out to be 37 µM. Further, in data set [18] (iv, 1 mg/kg), the Clb turned out to be 30 and the T1/2 is given as 0.5 h. In data set [18] (male, po, 5 mg/kg), this compound returned a Cmax of 140 ng/mL and an F of 12%. The “AUC 0–24” value in data set [18] (male, po, 5 mg/kg, 24 h) is 19. Further, in [6], the “P-glycoprotein (P-gp) efflux (in words)” value is on record as “no likely P-glycoprotein (P-gp) efflux issues”, the “permeability (in words)” value is “good permeability” and the “P-gp Efflux B→ A/A → B” value was found to be 0.8. The compound further yielded a CLB in data set [7] of 29 mL/min/kg. Besides, the IC50 in the data set on Vero cells [8] is 39 µM. Besides, in “in vivo [9]”, the AUC was 1730 ng·h/mL and the bioavailability came to 18%.
Regarding `NC(=O)c1cc(N2CCOCC2)ccc1OCCc1ccccc1` [Compound 55, 5-Morpholino-2-(2-phenylethoxy)benzamide], the concentration in solution in “physchem [10]” (pH 2) (solubility) was 600 µg/mL (≈ 1840 µM). This compound registered a solubility in “physchem [10]” (pH 6) of 300 µg/mL (≈ 919 µM). Also, in the data set “physchem [10]” (pH 7.4), the concentration in solution (solubility) was 300 µg/mL (≈ 919 µM). In the data set “physchem [11]”, this compound came in with a chromatographic logD of 1.9. In addition, in [2], the Cli mouse is 3.8 mL.min^–1.g^–1 and the “scaled Clpre” value was determined as 68 mL/min/kg. Also, in [2] (mouse, microsomes), the “CL mouse MEAN” value came out at 3.79 mL/min/g and the “in vitro mouse Clint” value is listed as 4 mL/min/g. In addition, the MIC in the data set with M. tuberculosis H37Rv [3] (read-out: H37Rv MIC) amounted to 1.9 µg/mL. Further, in the data set on M. tuberculosis H37Rv [3], the MIC90 amounted to 5.7 µM (≈ 1.86 µg/mL). This compound displayed a solubility in “physchem [12]” (pH 2.4) of 1300 µg/mL (≈ 3980 µM). In addition, the solubility in the data set “physchem [12]” (pH 6) is 300 µg/mL (≈ 919 µM). In data set [7], this compound registered a CLB of 32 mL/min/kg and a T1/2 of 1.2 h. In addition, the IC50 in the data set with Vero cells [8] was more than 100 µM. In “in vivo [9]”, this compound had an AUC of 1590 ng·h/mL and a bioavailability of 5%.
Regarding `CCc1nc2ccc(Cl)cn2c1C(=O)NCc1ccc(N2CCC(c3ccc(OC(F)(F)F)cc3)CC2)cc1` [Compound Q203], in the data set on M. tuberculosis H37Rv [19], the “ATP levels versus growth (OD590)” value is “depletion of ATP occurred at lower concentrations than required to inhibit growth”.
With `CO[C@H]1/C=C/O[C@@]2(C)Oc3c(C)c(O)c4c(O)c(c(/C=N/N5CCN(C)CC5)c(O)c4c3C2=O)NC(=O)/C(C)=C\C=C\[C@H](C)[C@H](O)[C@@H](C)[C@@H](O)[C@@H](C)[C@H](OC(C)=O)[C@@H]1C` [rifampicin], the “ATP levels versus growth (OD590)” value in the data set with M. tuberculosis H37Rv [19] was “correlated with growth”.
